What follows are cell lines tested with Cc1cnc(CNC(=O)c2c(=O)c3ccc(N4CCCN(C)CC4)nc3n3c2sc2ccccc23)cn1 [CX-5461] + C[C@@H](Oc1cc(-c2cnn(C3CCNCC3)c2)cnc1N)c1c(Cl)ccc(F)c1Cl [Crizotinib] (partner 1 µM) (assay: relative viability (nuclei count vs DMSO), 5 days (fraction); higher = more cells survive). Conditions: first compound 0.01 µM.
Summary of the method: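 Lung cancer cell lines were pin-tool dosed in 1536-well plates on the day after seeding, with either a lone drug or a fixed anchor-drug dose plus five library-drug doses (not always all listed) in √10 steps. Nuclei were counted on 4× images after 5 days. Relative viability is the ratio of treated-well to vehicle-well nuclei counts, with each value a median of duplicate plates.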

Cell Line	relative viability
NCI-H727	0.695
NCI-H1650	1.08
EBC-1	0.174
NCI-H1703	0.783
NCI-H1993	0.972
SK-LU-1	0.95
NCI-H838	0.973
LCLC-103H	1.12
NCI-H520	0.736
NCI-H2126	1.05
EMC-BAC-2	0.782
NCI-H2085	0.908
Calu-6	0.861
HCC-366	0.693
NCI-H1666	1.03
NCI-H596	0.981

Cell Line	relative viability
NCI-H2087	0.989
H3255	0.849
COR-L23	0.63
COR-L 105	1.12
IA-LM	0.968
LOU-NH91	0.756
ChaGo-K-1	1.17
NCI-H358	0.524
NCI-H2405	0.827
HOP-62	0.996
HCC-44	0.796
A549	0.824
NCI-H441	0.642
NCI-H1299	0.961
NCI-H2170	1.17

Same assay, conditions: first compound 0.03162 µM

Cell Line	relative viability
NCI-H727	0.835
NCI-H1650	0.996
EBC-1	0.207
NCI-H1703	0.852
NCI-H1993	0.819
SK-LU-1	1.01
NCI-H838	0.87
LCLC-103H	1.08
NCI-H520	0.925
NCI-H2126	1.11
EMC-BAC-2	0.839
NCI-H2085	0.951
Calu-6	0.809
HCC-366	0.82
NCI-H1666	0.838
NCI-H596	0.972

Cell Line	relative viability
NCI-H2087	0.969
LK-2	0.188
H3255	0.957
COR-L23	0.797
COR-L 105	0.992
IA-LM	0.813
LOU-NH91	0.784
ChaGo-K-1	1.21
NCI-H358	0.57
NCI-H2405	0.949
HOP-62	0.901
HCC-44	0.832
A549	0.804
NCI-H441	0.719
NCI-H1299	0.99
NCI-H2170	1.29

Same assay, conditions: first compound 0.1 µM

Cell Line	relative viability
NCI-H727	0.692
EBC-1	0.19
NCI-H1703	0.77
NCI-H1993	0.862
SK-LU-1	0.837
NCI-H838	0.843
LCLC-103H	1.13
NCI-H520	0.777
NCI-H2126	1.08
EMC-BAC-2	0.725
NCI-H2085	0.833
Calu-6	0.722
HCC-366	0.573
NCI-H596	0.973
NCI-H2087	0.874
